# Reference: US8785630B2, “Insecticidal triazines and pyrimidines” (Vestaron Corporation, priority 2011, dated 2014)
# Test system: beet armyworm (Spodoptera exigua)
# Experiment: Insecticidal test for beet armyworm, treated diet surface
# Format: in vivo
# Settings: 100 μg/cm^2 on diet surface, first instar larvae, 32 insects per treatment, observations 24, 48 and 96 hours
# Description: The compounds identified in Table 8 were prepared according to the previous methods and were tested against beet armyworm and corn earworm as follows:
# Insecticidal Test for Beet Armyworm (Spodoptera exigua).
# To prepare the test solution, the test compound was Formulated at 3499 ppm in solution as 5 mg compound/1.429 mL of 9 parts acetone: 1 part deionized H2O and vortexed to homogenize. 50 μL of the 3499 ppm (equivalent to 100 μg/cm^2 dose on diet surface area) test solution was pipetted upon the surface of 1 mL of solidified cool Southland Products Incorporated Beet Armyworm Diet (201 Stuart Island Road Lake Village, Ark. 71653) using an Eppendorf Repeater Plus with a 1 mL pipette tip. All pipetting of treatments was done in a Labconco Hood. Thirty minutes were allowed for the acetone to evaporate leaving a dose of 100 μg/cm^2 on the surface of the artificial diet. Two 24 hour old first instar Beet Armyworm (Spodoptera Exigua) larvae were placed in each well of the 128 well Bio-BA 128 Bioassay trays (CD International, Pitman, N.J., 08071, USA) using a #0 fine camel hair paint brush. Bioassay trays were sectioned into treatment groups of 8 with 16 replicates per treatment group (32 insects per treatment). Trays containing the treated diet and larvae were covered with a Bio-CV-16 cover (CD International, Pitman, N.J., 08071, USA) and then placed on a rack under florescent lights at 27° C., 20% relative humidity (RH) in the room, and 16 hr light: 8 hr dark for 96 hours. Observations were made 24, 48 and 96 hours after treatment and infestation. The number of insects dead were counted out of the 32 insects total per treatment and the results are given in a table as a percent mortality at a dose of 100 μg/cm^2. When finished, the tray was moved to the −5° C. freezer and left for 24 hr to insure mortality of the remaining S. exigua. After 24 hours, dispose of entire tray into waste bin.
# Keys to the table: Mortality refers to activity against beet army worm (Spodoptera exigua) as defined above at the concentration of 100 μg/cm^2 (A=76-100% mortality, B=51-75% mortality, C=26-50% mortality and D=0-25% mortality).
row,SMILES,mortality at 100 µg/cm2 [%]
1,"Fc1cccc(F)c1-c1nc(NN=Cc2ccc(OC(F)(F)C(F)F)cc2)nc(Nc2ccc(Cl)cc2)n1 [Example 10, N-(4-chlorophenyl)-4-(2,6-difluorophenyl)-6-(2-(4-(1,1,2,2-tetrafluoroethoxy)benzylidene)hydrazinyl)-1,3,5-triazin-2-amine]",76 to 100
2,"Fc1cccc(Cl)c1-c1nc(NN=Cc2ccc(OC(F)(F)F)cc2)nc(Nc2ccc(Cl)nc2)n1 [Example 13, 4-(2-chloro-6-fluorophenyl)-N-(6-chloropyridin-3-yl)-6-(2-(4-(trifluoromethoxy)benzylidene)hydrazinyl)-1,3,5-triazin-2-amine]",76 to 100
3,"Fc1cccc(F)c1-c1nc(NN=Cc2ccc(OC(F)(F)C(F)F)cc2)nc(Nc2ccc(Cl)nc2)n1 [Example 15, N-(6-chloropyridin-3-yl)-4-(2,6-difluorophenyl)-6-(2-(4-(1,1,2,2-tetrafluoroethoxy)benzylidene)hydrazinyl)-1,3,5-triazin-2-amine]",76 to 100
4,"FC(F)(F)Oc1ccc(C=NNc2nc(Nc3ccc(Cl)cn3)cc(-c3ccccc3)n2)cc1 [Example 49, N-(5-chloropyridin-2-yl)-6-phenyl-2-(2-(4-(trifluoromethoxy)benzylidene)hydrazinyl)pyrimidin-4-amine]",0 to 25
5,"FC(F)(F)Oc1ccc(C=NNc2nc(Nc3ccc(Cl)nc3)nc(-c3c(Cl)cccc3Cl)n2)cc1 [Example 16, N-(6-chloropyridin-3-yl)-4-(2,6-dichlorophenyl)-6-(2-(4-(trifluoromethoxy)benzylidene)hydrazinyl)-1,3,5-triazin-2-amine]",76 to 100
6,"FC(F)(F)Oc1ccc(C=NNc2cc(Nc3ccc(Cl)cc3)nc(-c3ccccc3)n2)cc1 [Example 46, N-(4-chlorophenyl)-2-phenyl-6-(2-(4-(trifluoromethoxy)benzylidene)hydrazinyl)pyrimidin-4-amine]",76 to 100
7,"FC(F)(F)Oc1ccc(C=NNc2nc(Nc3ccc(Cl)cc3)nc(-c3c(Cl)cc(Cl)cc3Cl)n2)cc1 [Example 27, N-(4-chlorophenyl)-4-(2,4,6-trichlorophenyl)-6-(2-(4-(trifluoromethoxy)benzylidene)hydrazinyl)-1,3,5-triazin-2-amine]",0 to 25
8,"FC(F)(F)Oc1ccc(C=NNc2nc(Nc3ccc(Cl)nc3)cc(-c3ccccc3)n2)cc1 [Example 47, N-(6-chloropyridin-3-yl)-6-phenyl-2-(2-(4-(trifluoromethoxy)benzylidene)hydrazinyl)pyrimidin-4-amine]",0 to 25
9,"Fc1ccccc1-c1nc(NN=Cc2ccc(OC(F)(F)F)cc2)nc(Nc2ccc(Cl)cc2)n1 [Example 44, N-(4-chlorophenyl)-4-(2-fluorophenyl)-6-(2-(4-(trifluoromethoxy)benzylidene)hydrazinyl)-1,3,5-triazin-2-amine]",76 to 100
10,"FC(F)(F)Oc1ccc(C=NNc2cc(-c3ccccc3)nc(Nc3ccc(Cl)cc3)n2)cc1 [Example 58, N-(4-chlorophenyl)-4-phenyl-6-(2-(4-(trifluoromethoxy)benzylidene)hydrazinyl)pyrimidin-2-amine]",76 to 100
11,Oc1ccc(C=NNc2nc(Nc3ccc(Cl)nc3)nc(-c3c(F)cccc3Cl)n2)cc1 [Example 50],0 to 25
